From patent US4818772A, “Derivatives of 4-aminoethoxy-5-isopropyl-2-methylbenzenes: methods of synthesis and utilization as medicines” (Societe Cortial S.A., priority 1981, dated 1989) come the findings set out here.

Data set [1] concerns hypertension induced by phenylephrine. As to the kind of experiment: In vivo alpha-blocking activity: antagonism of hypertension induced by phenylephrine, intravenous, amyelic rats. As to conditions: for inhibition in vivo at 1.6 mg/kg / inhibition in vivo at 3.2 mg/kg / inhibition in vivo at 0.2 mg/kg: Rattus norvegicus, iv, read-out: % of maximum activity (percentage inhibition); for time for the residual activity to become 50% of the maximum activity: i.v. On the procedure: (§1) The in vivo alpha-blocking activity is estimated by the measurement of the antagonism of hypertension induced by phenylephrine. For intravenous administration, amyelic rats with both vagus nerves removed according to the technique of J. S. Gillespie and T. C. Muir (Br. J. Pharmac. Chemother., 1967, 30, 78-87) are used. The alpha-blocking agents are administered at doses of 0.2, 1.6 and 3.2 mg/kg.

Data set [2] concerns aortic strips isolated from rabbits (contractions induced by noradrenaline). As to the kind of experiment: In vitro alpha-blocking activity: antagonism of noradrenaline-induced contractions of aortic strips. It counts as cell-based. Conditions: Oryctolagus cuniculus, read-out: CI 50 (50% inhibition of standard contraction induced by noradrenaline), noradrenaline 2×10^-6 M/l. On the procedure: In vitro alpha-blocking activity is determined by the antagonism of contractions of aortic strips isolated from rabbits. The contractions are induced by noradrenaline at a concentration of 2×10^-6 M/l. The technique utilized is derived from that of Furchgott and Bhadrakom (J. Pharmacol., 1953, 108, 129-43). The agonist is introduced in the bath 30 seconds or 14 minutes after the addition of the antagonist.

A short description of a further data set: in vivo. As to conditions: mouse; for mortality: oral, Swiss mice, solvent varies by compound, read-out: Percentage mortality. On the procedure: The toxicity of the compounds described in the present invention was determined by performing tests with Swiss mice. The animals, free of specific pathogenic organisms, are kept in an air-conditioned room for 24 to 48 hours before the beginning of the experiment. The animals are divided into groups consisting of 5 males and 5 females. The substances are administered with the appropriate carrier in a volume corresponding to 0.1 ml per 10 g of animal weight.
The following tables display the LD 50 determined for each compound, for oral and intraperitoneal administration, by utilizing the method described by J. C. Cazin (Bull. Soc. Pharm. Lille, 1972, 4, 187). In case the LD 50 could not be measured, the mortality percentages produced by various doses are reported.

Data set [3] relates to rats of Okamoto stock that are spontaneously hypertensive. As to the kind of experiment: Antihypertensive activity in spontaneously hypertensive rats. It counts as in vivo. Conditions: i.v., 0.1 mg/kg; from 135 mm of mercury; anesthetized with pentobarbital. On the procedure: (§2) For oral administration, male rats kept awake and fitted with catheters implanted in the carotid artery and in the jugular vein are used. Compound COR 28 11 results in a maximum activity of 56.7±10.25% at a dose of 5 mg/kg. After 60 minutes, the activity is still 30%. The antihypertensive activity is determined on rats of Okamoto stock that are spontaneously hypertensive and anesthesized with pentobarbital. A dose of 0.1 mg/kg of compound COR 28 11 administered intravenously causes the average blood pressure to go from 135 to 106 mm of mercury.

The test system of data set [4] is hypertension induced by phenylephrine. As to the kind of experiment: In vivo alpha-blocking activity: antagonism of hypertension induced by phenylephrine, oral, awake male rats. Conditions: 5 mg/kg. On the procedure: as §1, §2
Another data set concerns unwashed human platelets. Nature of the data set: Prevention of the aggregation of human platelets (plasma rich in platelets). It is filed as cell-based. As to conditions: Platelet. On the procedure: The studies were carried out with platelets in their natural surroundings (plasma rich in platelets). The inhibiting agent was tested in the presence of four types of aggregating agents (ADP, adrenalin, collagen, arachidonic acid) at various concentrations.
For each case, a dose-response curve was established.

Setting [5] is: agonist 30 seconds after antagonist (not flagged with *).
Where [6] appears, read: read-out: I 50 (50% inhibition of platelet aggregation), ADP 1.25μM/l.
The mark [7] stands for this setting: read-out: I 50 (50% inhibition of platelet aggregation), ADP 2.5μM/l.
Setting [8] is: read-out: I 50 (50% inhibition of platelet aggregation), adrenalin 1μM/l.
[9] abbreviates: read-out: I 50 (50% inhibition of platelet aggregation), adrenalin 5μM/l.
Where [10] appears, read: read-out: I 50 (50% inhibition of platelet aggregation), arachidonic acid 5·10^-4 M/l.
[11] abbreviates: read-out: I 50 (50% inhibition of platelet aggregation), arachidonic acid 10^-3 M/l.
The mark [12] stands for this setting: read-out: I 50 (50% inhibition of platelet aggregation), collagen 50μg/ml.

Each structure is given as a SMILES string. Where a name gives a salt, the structure may show the parent alone. Read-outs that look alike come from different tables or passages of the source.

Take `COc1cc(C(C)C)c(OCCN(C)CCOc2ccccc2)cc1C` [COR 28 09, hydrochloride of N-methyl-N-phenoxyethyl-2-[(2-isopropyl-4-methoxy-5-methyl)phenoxy]ethylamine]: the inhibition in vivo at 1.6 mg/kg in data set [1] (1.6 mg/kg) amounted to 51.4 ± 5.1%. In addition, the inhibition in vivo at 3.2 mg/kg in data set [1] (3.2 mg/kg) was 74.7 ± 5.2%. The IC50 in data set [2] (setting [5]) came to 260 µM. In “in vivo” (ip), the LD50 (usually the dose expected to kill half of the subjects tested) was determined as 200 mg/kg. For the same compound, the mortality (usually the percentage killed) in “in vivo” (1000 mg/kg) came to 0%.

In the case of `COc1cc(C(C)C)c(OCCNCCOc2ccccc2)cc1C` [COR 28 10, hydrochloride of N-phenoxyethyl-2-[(2-iso-propyl-4-methoxy-5-methyl)phenoxy]ethylamine], the inhibition in vivo at 1.6 mg/kg in data set [1] (1.6 mg/kg) was 66.3 ± 1.83%. For the same compound, the inhibition in vivo at 3.2 mg/kg in data set [1] (3.2 mg/kg) came to 77%. Also, the IC50 in data set [2] (setting [5]) was found to be 350 µM. Besides, in “in vivo” (ip), the LD50 came out at 81 mg/kg. Further, in the data set “in vivo” (1000 mg/kg), the mortality was determined as 20%.

As for `COc1cc(C(C)C)c(OCCN(C)CCOc2c(OC)cccc2OC)cc1C` [COR 28 11, hydrochloride of N-(2,6-dimethoxyphenoxyethyl)-N-methyl-2-[(2-isopropyl-4-methoxy-5-methyl)phenoxy]ethylamine], the “average blood pressure after administration” value in data set [3] was 106 mm of mercury. Moreover, the inhibition in vivo at 1.6 mg/kg in data set [1] (1.6 mg/kg) amounted to 61.8 ± 4.9%. The inhibition in vivo at 3.2 mg/kg in data set [1] (3.2 mg/kg) came out at 74.6 ± 4.4%. Moreover, the “time for the residual activity to become 50% of the maximum activity” value in data set [1] (1.6 mg/kg, given in m and s) was more than 60 min; in data set [1] (3.2 mg/kg, given in m and s), 60 min. For the same compound, the maximum activity in data set [4] is on record as 56.7±10.25%. Moreover, the “activity after 60 minutes” value in data set [4] (after 60 minutes) turned out to be 30%. In addition, in data set [2] (14 min, contact time 14 min), the IC50 is 21.6 µM. In addition, the median lethal dose (LD50) in “in vivo” (ip) came to 93 mg/kg; in “in vivo” (po) it was 546 mg/kg.

With `Cc1cc(OCCN(C)CC2COc3ccccc3O2)c(C(C)C)cc1O` (centres unmarked) [COR 28 12, hydrochloride of N-[(4-hydroxy-2-isopropyl-5-methyl)phenoxyethyl]-N-methyl-[2-(1,4-benzodioxane)]methylamine], the inhibition in vivo at 1.6 mg/kg in data set [1] (1.6 mg/kg) is 59.1 ± 7.5%. Besides, the inhibition in vivo at 3.2 mg/kg in data set [1] (3.2 mg/kg) was 65.7 ± 4.5%. The IC50 in data set [2] (setting [5]) is 90 µM. Besides, the LD50 stood at 350 mg/kg in the data set “in vivo” (ip) and 1430 mg/kg in “in vivo” (po).

As to `CC(=O)Oc1cc(C(C)C)c(OCCN(C)CC2COc3ccccc3O2)cc1C` (centres unmarked) [COR 28 13, hydrochloride of N-[(4-acetoxy-2-isopropyl-5-methyl)phenoxyethyl]-N-methyl-[2-(1,4-benzodioxane)]methylamine], the inhibition in vivo at 1.6 mg/kg in data set [1] (1.6 mg/kg) stood at 46.1 ± 6.01%. The inhibition in vivo at 3.2 mg/kg in data set [1] (3.2 mg/kg) was found to be 61.1 ± 6.4%. For the same compound, the IC50 in data set [2] (setting [5]) came to 252 µM. Also, the LD50 in “in vivo” (ip) amounted to 600 mg/kg. Also, the results for the mortality in “in vivo” (1000 mg/kg) and in the data set “in vivo” (2000 mg/kg) were 0% and 20%, respectively.

Consider `Cc1cc(OCCNCC2COc3ccccc3O2)c(C(C)C)cc1O` (centres unmarked) [COR 28 14, hydrochloride of N-[(4-hydroxy-2-isopropyl-5-methyl)phenoxyethyl]-[2-(1,4-benzodioxane)]methylamine], for which, in data set [1] (1.6 mg/kg), the inhibition in vivo at 1.6 mg/kg turned out to be 92 ± 2.45%. The inhibition in vivo at 3.2 mg/kg in data set [1] (3.2 mg/kg) was 100%. Moreover, the “time for the residual activity to become 50% of the maximum activity” value in data set [1] (3.2 mg/kg, given in m and s) was more than 60 min. In addition, in data set [2] (setting [5]), the IC50 was determined as 6 µM. In addition, the LD50 in “in vivo” (ip) is 174 mg/kg; in the data set “in vivo” (po), 952 mg/kg.

Turning to `Cc1cc(OCCNCCCc2ccccc2)c(C(C)C)cc1O` [COR 28 21, hydrochloride of 5-isopropyl-2-methyl-4-[N-(3-phenylpropyl)aminoethoxy]phenol], the inhibition in vivo at 1.6 mg/kg in data set [1] (1.6 mg/kg) turned out to be 73.4 ± 6.99%. Also, the “time for the residual activity to become 50% of the maximum activity” value in data set [1] (1.6 mg/kg, given in m and s) came to 50 min. For the same compound, the IC50 in data set [2] (setting [5]) came to 11.7 µM. Besides, the LD50 in “in vivo” (ip) came out at 84.6 mg/kg; in “in vivo” (po) it was 359 mg/kg.

With `COc1cccc(OC)c1OCCN(C)CCOc1cc(C)c(O)cc1C(C)C` [COR 28 22, hydrochloride of 4-[N-(2,6-dimethoxyphenoxyethyl)-N-methylaminoethoxy]-5-isopropyl-2-methylphenol], in data set [1] (0.2 mg/kg), the inhibition in vivo at 0.2 mg/kg is 91.1 ± 3.46%. For the same compound, in data set [1] (1.6 mg/kg), the inhibition in vivo at 1.6 mg/kg was 112 ± 7.3%. The “time for the residual activity to become 50% of the maximum activity” value amounted to 35 min in data set [1] (0.2 mg/kg); 120 min in data set [1] (1.6 mg/kg, given in m and s). For the same compound, the IC50 in data set [2] (setting [5]) amounted to 0.178 µM. The LD50 in “in vivo” (ip) was 66.2 mg/kg; in the data set “in vivo” (po), 316 mg/kg.

As for `Cc1cc(OCCN(C)CCCc2ccccc2)c(C(C)C)cc1O` [COR 28 23, hydrochloride of 5-isopropyl-2-methyl-4-[N-methyl-N-(3-phenylpropyl)aminoethoxy]phenol], the inhibition in vivo at 1.6 mg/kg in data set [1] (1.6 mg/kg) was 81.1 ± 2.35%. Also, the “time for the residual activity to become 50% of the maximum activity” value in data set [1] (1.6 mg/kg, given in m and s) stood at 20 min. Besides, the IC50 in data set [2] (setting [5]) worked out at 2.7 µM. The values for the LD50 in “in vivo” (ip) and in “in vivo” (po) were 154 mg/kg and 615 mg/kg, respectively.

On to `COc1cccc(OC)c1OCCNCCOc1cc(C)c(O)cc1C(C)C` [COR 28 25, hydrochloride of 4-[N-(2,6-dimethoxyphenoxyethyl)aminoethoxy]-5-isopropyl-2-methylphenol], for which, in data set [1] (0.2 mg/kg), the inhibition in vivo at 0.2 mg/kg was found to be 70.2 ± 4.89% and the “time for the residual activity to become 50% of the maximum activity” value was determined as 20 min. For the same compound, the inhibition in vivo at 1.6 mg/kg in data set [1] (1.6 mg/kg) was 94.8 ± 2.22%. Besides, in data set [1] (1.6 mg/kg, given in m and s), the “time for the residual activity to become 50% of the maximum activity” value stood at 120 min.

For `CC(=O)Oc1cc(C(C)C)c(OCCN(C)C)cc1C` [Moxisylyte, reference compound], the inhibition in vivo at 1.6 mg/kg in data set [1] (1.6 mg/kg) stood at 83.1 ± 5.71%. The inhibition in vivo at 3.2 mg/kg in data set [1] (3.2 mg/kg) was determined as 82.6 ± 4.54%. Moreover, in data set [2] (setting [5]), the IC50 came out at 17 µM. Besides, the LD50 in the data set “in vivo” (ip) was found to be 73 mg/kg; in “in vivo” (po), 225 mg/kg.

Regarding `COc1cc(C(C)C)c(OCCN(C)CCOc2c(OC)cccc2OC)cc1C` [drawing 28], the IC50 in the data set with unwashed human platelets (setting [6]) was 70 µM; in the data set on unwashed human platelets (setting [7]), 74 µM; with unwashed human platelets (setting [8]) it was 16 µM; in the data set with unwashed human platelets (setting [9]), 40 µM; in the data set on unwashed human platelets (setting [10]), more than 100 µM; in the data set on unwashed human platelets (setting [11]), more than 100 µM. In addition, the IC50 in the data set with unwashed human platelets (setting [12]) worked out at 100 µM.

Take `Cc1cc(OCCNCC2COc3ccccc3O2)c(C(C)C)cc1O` (centres unmarked) [drawing 29]: the IC50 is 60 µM in the data set with unwashed human platelets (setting [6]); 58 µM in the data set with unwashed human platelets (setting [7]); 24 µM in the data set with unwashed human platelets (setting [8]); 50 µM in the data set with unwashed human platelets (setting [9]); 15 µM with unwashed human platelets (setting [10]); 54 µM with unwashed human platelets (setting [11]). In addition, the IC50 with unwashed human platelets (setting [12]) came to 52 µM.
